Key:
[1] = target: T1, progesterone receptor (PR) (Homo sapiens, UniProt P06401); test: Radioligand binding assay for progesterone receptor (similar protocol);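 note: radioligand binding measured with cytosol preparations containing the human progesterone receptor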
T1 sequence (P06401 1-933): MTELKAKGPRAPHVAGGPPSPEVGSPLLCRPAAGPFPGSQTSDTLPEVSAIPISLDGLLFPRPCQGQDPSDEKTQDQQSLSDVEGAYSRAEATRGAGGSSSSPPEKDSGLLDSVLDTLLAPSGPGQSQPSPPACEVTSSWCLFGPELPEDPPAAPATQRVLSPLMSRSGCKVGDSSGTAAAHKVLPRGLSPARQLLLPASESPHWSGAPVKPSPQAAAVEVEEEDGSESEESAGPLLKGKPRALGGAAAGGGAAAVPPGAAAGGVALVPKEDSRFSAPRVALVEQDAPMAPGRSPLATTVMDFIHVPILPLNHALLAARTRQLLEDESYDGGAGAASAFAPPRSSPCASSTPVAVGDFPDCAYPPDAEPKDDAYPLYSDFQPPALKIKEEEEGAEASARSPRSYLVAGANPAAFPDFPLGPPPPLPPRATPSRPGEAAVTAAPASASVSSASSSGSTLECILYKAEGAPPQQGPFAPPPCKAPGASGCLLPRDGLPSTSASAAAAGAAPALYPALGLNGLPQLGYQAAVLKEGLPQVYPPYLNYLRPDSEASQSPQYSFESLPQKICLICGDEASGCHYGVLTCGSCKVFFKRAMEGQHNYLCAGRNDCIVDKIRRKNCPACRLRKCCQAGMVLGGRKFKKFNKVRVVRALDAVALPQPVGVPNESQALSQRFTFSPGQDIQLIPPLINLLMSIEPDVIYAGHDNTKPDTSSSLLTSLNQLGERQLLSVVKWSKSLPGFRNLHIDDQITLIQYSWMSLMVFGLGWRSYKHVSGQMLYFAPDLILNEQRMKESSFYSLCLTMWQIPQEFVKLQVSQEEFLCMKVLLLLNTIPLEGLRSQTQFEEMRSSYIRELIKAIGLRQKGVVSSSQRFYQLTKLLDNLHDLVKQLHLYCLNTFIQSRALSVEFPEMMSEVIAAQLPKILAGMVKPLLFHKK
Source text: Methods for Radiolipand Binding Studies with Human Glucocorticoid and Progesterone Receptor Cytosol

[2] = target: T2, Human glucocorticoid receptors (Homo sapiens, UniProt P04150); test: Radioligand filter binding assay, displacement of 3[H]-dexamethasone from hGR; details: read-out: GR Binding (% Inhibition at 1.7 μM)
T2 construct: made in house; host or cells: Sf9 insect cells, recombinant baculovirus (BAC-TO-BAC)
T2 sequence (P04150 1-777): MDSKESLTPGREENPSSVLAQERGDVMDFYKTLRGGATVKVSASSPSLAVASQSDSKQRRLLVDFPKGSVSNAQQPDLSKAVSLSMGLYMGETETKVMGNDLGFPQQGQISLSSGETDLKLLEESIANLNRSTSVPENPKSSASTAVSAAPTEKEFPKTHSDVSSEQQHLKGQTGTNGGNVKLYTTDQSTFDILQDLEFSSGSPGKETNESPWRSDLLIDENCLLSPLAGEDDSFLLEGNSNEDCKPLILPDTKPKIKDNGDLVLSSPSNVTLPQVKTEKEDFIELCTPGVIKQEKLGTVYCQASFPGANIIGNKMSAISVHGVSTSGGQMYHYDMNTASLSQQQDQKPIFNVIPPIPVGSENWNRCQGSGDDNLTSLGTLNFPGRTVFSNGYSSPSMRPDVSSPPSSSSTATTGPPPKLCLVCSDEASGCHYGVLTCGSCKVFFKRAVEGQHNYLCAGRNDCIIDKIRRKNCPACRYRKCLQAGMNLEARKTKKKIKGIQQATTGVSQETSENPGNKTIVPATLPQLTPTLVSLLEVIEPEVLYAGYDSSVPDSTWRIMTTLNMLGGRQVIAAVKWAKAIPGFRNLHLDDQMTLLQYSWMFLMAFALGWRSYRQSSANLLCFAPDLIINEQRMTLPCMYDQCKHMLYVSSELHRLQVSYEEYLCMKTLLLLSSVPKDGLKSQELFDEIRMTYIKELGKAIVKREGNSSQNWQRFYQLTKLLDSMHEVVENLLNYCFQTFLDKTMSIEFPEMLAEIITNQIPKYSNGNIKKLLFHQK
Summary of the method: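 Recombinant hGR extract from baculovirus-infected Sf9 cells (final ~1 nM receptor) incubated with ³H-dexamethasone and test compound dilutions in duplicate, EDTA/phosphate pH 8 buffer with MTG, overnight (15-20 h) at +4° C. Bound label collected on PEI-treated GF/B filters and scintillation-counted; IC50 from four-parameter fit of corrected cpm.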

[3] = tested on: obese diabetic db/db transgenic mice; details: Friedman et al. 1997; cited from earlier work

Row | SMILES | IC50 [1] [nM] | inhibition at 1.7 µM [2] [%] | reduction of plasma glucose levels [3] [%]
1 | Cc1c(NS(C)(=O)=O)cccc1N(Cc1ccccc1)Cc1ccc(Oc2ccc(CCC(=O)NCCCC(=O)O)cc2)cc1 [Example 106, 4-{[3-(4-{4-[(benzyl{2-methyl-3-[(methylsulfonyl)amino]phenyl}amino)methyl]phenoxy}phenyl)propanoyl]amino}butanoic acid] | 1290 | 96 | –
2 | Cc1c(NS(C)(=O)=O)cccc1N(Cc1ccccc1)Cc1ccc(Oc2cccc(OC(C)C(=O)O)c2)cc1 (stereo not drawn) [Example 111, 2-(3-{4-[(benzyl{2-methyl-3-[(methylsulfonyl)amino]phenyl}amino)methyl]phenoxy}phenoxy)propanoic acid] | 773 | 95.3 | –
3 | Cc1c(NS(C)(=O)=O)cccc1N(Cc1ccccc1)Cc1ccc(Oc2cccc(OCC(=O)NCCCN3CCCC3=O)c2)cc1 [Example 114, 2-(3-{4-[(benzyl{2-methyl-3-[(methylsulfonyl)amino]phenyl}amino)methyl]phenoxy}phenoxy)-N-[3-(2-oxopyrrolidin-1-yl)propyl]acetamide] | 1370 | 96.7 | –
4 | Cc1c(NS(C)(=O)=O)cccc1N(Cc1ccccc1)Cc1ccc(Oc2ccc(CCC(=O)NCCN3CCOCC3)cc2)cc1 [Example 147, 3-(4-{4-[(benzyl{2-methyl-3-[(metbylsulfonyl)amino]phenyl}amino)methyl]phenoxy}phenyl)-N-(2-morpholin-4-ylethyl)propanamide] | 1330 | 93.5 | –
5 | Cc1c(NS(C)(=O)=O)cccc1N(Cc1ccccc1)Cc1ccc(Oc2ccc(CCC(=O)NCCCCCO)cc2)cc1 [Example 149, 3-(4-{4-[(benzyl{2-methyl-3-[(methylsulfonyl)amino]phenyl}amino)methyl]phenoxy}phenyl)-N-(5-hydroxypentyl)propanamide] | 4290 | 94.7 | –
6 | Cc1c(NS(C)(=O)=O)cccc1N(Cc1ccccc1)Cc1ccc(Oc2ccc(CCC(=O)NCCCCO)cc2)cc1 [Example 150, 3-(4-{4-[(benzyl{2-methyl-3-[(methylsulfonyl)amino]phenyl}amino)methyl]phenoxy}phenyl)-N-(4-hydroxybutyl)propanamide] | 2550 | 94.3 | –
7 | Cc1c(NS(C)(=O)=O)cccc1N(Cc1ccccc1)Cc1ccc(Oc2ccc(CCC(=O)NCCCO)cc2)cc1 [Example 151, 3-(4-{4-[(benzyl{2-methyl-3-[(methylsulfonyl)amino]phenyl}amino)methyl]phenoxy}phenyl)-N-(3-hydroxypropyl)propanamide] | 551 | 94.3 | –
8 | Cc1c(NS(C)(=O)=O)cccc1N(Cc1ccccc1)Cc1ccc(Oc2ccc(CCC(=O)NCCO)cc2)cc1 [Example 152, 3-(4-{4-[(benzyl{2-methyl-3-[(methylsulfonyl)amino]phenyl}amino)methyl]phenoxy}phenyl)-N-(2-hydroxyethyl)propanamide] | 896 | 94.3 | –
9 | Cc1c(NS(C)(=O)=O)cccc1N(Cc1ccccc1)Cc1ccc(Oc2ccc(CCC(=O)NCCCCCCO)cc2)cc1 [Example 153, 3-(4-{4-[(benzyl{2-methyl-3-[(methlsulfonyl)amino]phenyl}amino)methyl]phenoxy}phenyl)-N-(6-hydroxyhexyl)propanamide] | 255 | 91.7 | –
10 | Cc1c(NS(C)(=O)=O)cccc1N(Cc1ccc(Oc2cccc(OCCCC(=O)NCCC(=O)O)c2)cc1)Cc1ccc(F)cc1F [Example 324, N-(4-(3-(4-(((2,4-difluorobenzyl)(2-methyl-3-((methylsulfonyl)amino)phenyl)amino)methyl)phenoxy)phenoxy)butanoyl)-beta-alanine] | 123 | 97.4 | –
11 | Cc1c(NS(C)(=O)=O)cccc1N(Cc1ccc(Oc2cccc(OCCCC(=O)NCCCC(=O)O)c2)cc1)Cc1ccc(F)cc1F [Example 325, 4-((4-(3-(4-(((2,4-difluorobenzyl)(2-methyl-3-((methylsulfonyl)amino)phenyl)amino)methyl)phenoxy)phenoxy)butanoyl)amino)butanoic acid] | 122 | 97.7 | –
12 | Cc1c(NS(C)(=O)=O)cccc1N(Cc1ccc(Oc2cccc(OCCCC(=O)N(C)CC(=O)O)c2)cc1)Cc1ccc(F)cc1F [Example 326, N-(4-(3-(4-(((2,4-difluorobenzyl)(2-methyl-3-((methylsulfonyl)amino)phenyl)amino)methyl)phenoxy)phenoxy)butanoyl)-N-methylglycine] | 183 | 97 | –
13 | CC#C[C@]1(O)CC[C@H]2[C@@H]3CCC4=CC(=O)CCC4=C3[C@@H](c3ccc(N(C)C)cc3)C[C@@]21C [Mifepristone] | – | – | 50

Now from value to compound, other results behind:

Row | IC50 [1] [nM] | inhibition at 1.7 µM [2] [%] | SMILES | reduction of plasma glucose levels [3] [%]
14 | 214 | 96.5 | Cc1c(NS(C)(=O)=O)cccc1N(Cc1ccc(Oc2cccc(OCC(=O)O)c2)cc1)Cc1ccc(F)cc1F [Example 110, (3-{4-[((2,4-difluorobenzyl){2-methyl-3-[(methylsulfonyl)amino]phenyl}amino)methyl]phenoxy}phenoxy)acetic acid] | –
15 | 8050 | 85.4 | COc1ccc(Oc2ccc(CN(Cc3ccc(F)cc3F)c3cccc(NS(C)(=O)=O)c3C)cc2)cc1OC [Example 141, N-(3-{(2,4-difluorobenzyl)[4-(3,4-dimethoxyphenoxy)benzyl]amino}-2-methylphenyl)methanesulfonamide] | –
16 | > 10000 | 89.3 | CC#CCCOc1ccc(CN(Cc2ccc(F)cc2F)c2cccc(NS(C)(=O)=O)c2C)cc1 [Example 143, N-(3-{(2,4-difluorobenzyl)[4-(pent-3-ynyloxy)benzyl]amino}-2-methylphenyl)methanesulfonamide] | –
17 | 921 | 92.3 | Cc1c(NS(C)(=O)=O)cccc1N(Cc1ccc(OCc2ccoc2)cc1)Cc1ccc(F)cc1F [Example 154, N-(3-{(2,4-difluorobenzyl)[4-(3-furylmethoxy)benzyl]amino}-2-methylphenyl)methanesulfonamide] | –
18 | 499 | 92.8 | Cc1c(NS(C)(=O)=O)cccc1N(Cc1ccc(OCc2ccco2)cc1)Cc1ccc(F)cc1F [Example 155, N-(3-{(2,4-difluorobenzyl)[4-(2-furylmethoxy)benzyl]amino}-2-methylphenyl)methanesulfonamide] | –
19 | 360 | 98.5 | Cc1c(NS(C)(=O)=O)cccc1N(Cc1ccc(Oc2ccc(Cl)c(O)c2)cc1)Cc1ccc(F)cc1F [Example 322, N-(3-((4-(4-chloro-3-hydroxyphenoxy)benzyl)(2,4-difluorobenzyl)amino)-2-methylphenyl)methanesulfonamide] | –
20 | 66.6 | 98.2 | Cc1c(NS(C)(=O)=O)cccc1N(Cc1ccc(Oc2ccc(Br)c(OCC(=O)O)c2)cc1)Cc1ccc(F)cc1F [Example 323, (2-bromo-5-(4-(((2,4-difluorobenzyl)(2-methyl-3-((methylsulfonyl)amino)phenyl)amino)methyl)phenoxy)phenoxy)acetic acid] | –

— patent US6583180B2, “Glucocorticoid receptor modulators” (Abbott Laboratories, priority 2001, dated 2003)
